biological target: T1, TRKA (Homo sapiens, UniProt P04629); test: In vitro biochemical HTRF KinEASE kinase inhibition, TRKA; settings: not given
T1 construct: purchased Carna Biosciences 08-186
T1 sequence (P04629 33-796): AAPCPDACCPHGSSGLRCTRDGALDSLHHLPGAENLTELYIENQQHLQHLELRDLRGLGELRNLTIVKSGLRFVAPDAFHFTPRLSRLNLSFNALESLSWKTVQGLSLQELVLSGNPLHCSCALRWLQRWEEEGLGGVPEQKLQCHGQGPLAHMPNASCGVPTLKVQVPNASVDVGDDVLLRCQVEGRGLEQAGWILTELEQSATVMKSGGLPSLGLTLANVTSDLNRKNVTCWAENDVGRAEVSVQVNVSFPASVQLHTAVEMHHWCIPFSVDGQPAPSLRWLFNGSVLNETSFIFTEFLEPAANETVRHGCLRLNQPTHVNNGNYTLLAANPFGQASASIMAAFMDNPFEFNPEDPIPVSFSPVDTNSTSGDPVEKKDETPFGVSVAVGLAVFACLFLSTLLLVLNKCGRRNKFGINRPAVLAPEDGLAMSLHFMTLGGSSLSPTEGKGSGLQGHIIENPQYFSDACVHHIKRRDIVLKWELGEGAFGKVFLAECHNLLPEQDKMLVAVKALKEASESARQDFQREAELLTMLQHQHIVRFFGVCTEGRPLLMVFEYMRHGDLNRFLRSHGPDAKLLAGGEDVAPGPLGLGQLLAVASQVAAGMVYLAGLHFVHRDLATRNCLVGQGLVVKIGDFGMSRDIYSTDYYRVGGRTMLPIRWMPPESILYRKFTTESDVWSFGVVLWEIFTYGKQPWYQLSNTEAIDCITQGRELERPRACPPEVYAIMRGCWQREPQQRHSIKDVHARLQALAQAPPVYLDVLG

In the case of `CC(Nc1ccn2ncc(-c3cn[nH]c3)c2n1)c1cc(F)ccc1OCC#N` (stereo not drawn) [Compound b11-36, 2-(2-(1-((3-(1H-pyrazol-4-yl)pyrazolo [1,5-a]pyrimidin-5-yl)amino)ethyl)-4-fluorophenoxy) acetonitrile], the IC50 is reported as 88.6 nM.

same assay, conditions: wild-type kinase, final ATP 3.727 μmol/L; read-out: TRKA IC50

In order of rising IC50:
1. C[C@@H](Nc1ccn2ncc(-c3cnn(C4CCCCO4)c3)c2n1)c1cc(F)ccc1OCCF (stereo partly drawn) [Compound a20-27, N-((R)-1-(5-fluoro-2-(2-fluoroethoxy)phenyl)ethyl)-3-(1-(tetrahydro-2H-pyran-2-yl)-1H-pyrazol-4-yl) pyrazolo [1,5-a] pyrimidin-5-amine]  2.8 nM
2. C[C@@H](Nc1ccn2ncc(-c3cnn(CC#N)c3)c2n1)c1cc(F)ccc1OCCF [Compound a12-19, (R)-2-(4-(5-((1-(5-fluoro-2-(2-fluoroethoxy)phenyl)ethyl)amino)pyrazolo [1,5-a]pyrimidin-3-yl)-1H-pyrazol-1-yl) acetonitrile]  3.3 nM
3. CC(Nc1ccn2ncc(-c3cnn(CCO)c3)c2n1)c1cc(F)ccc1OC(F)F (stereo not drawn) [Compound a5-9, 2-(4-(5-((1-(2-(difluoromethoxy)-5-fluorophenyl)ethyl)amino)pyrazolo [1,5-a]pyrimidin-3-yl)-1H-pyrazol-1-yl) ethan-1-ol]  4 nM
4. CC(Nc1ccn2ncc(-c3cn[nH]c3)c2n1)c1cc(F)ccc1OCC1CC1 (stereo not drawn) [Compound b12-37, N-(1-(2-(cyclopropylmethoxy)-5-fluorophenyl)ethyl)-3-(1H-pyrazol-4-yl) pyrazolo [1,5-a] pyrimidin-5-amine]  4.2 nM
5. CC(=O)n1cc(-c2cnn3ccc(NC(C)c4cc(F)ccc4OCCF)nc23)cn1 (stereo not drawn) [Compound a21-28, 1-(4-(5-((1-(5-fluoro-2-(2-fluoroethoxy)phenyl)ethyl)amino)pyrazolo [1,5-a]pyrimidin-3-yl)-1H-pyrazol-1-yl) ethanone]  5.3 nM
6. CC(Nc1ccn2ncc(-c3cnn(C4CCCC4O)c3)c2n1)c1cc(F)ccc1OCCF (stereo not drawn) [Compound a17-24, 2-(4-(5-((1-(5-fluoro-2-(2-fluoroethoxy)phenyl)ethyl)amino)pyrazolo [1,5-a]pyrimidin-3-yl)-1H-pyrazol-1-yl) cyclopentan-1-ol]  7.6 nM
7. CC(Nc1ccn2ncc(-c3cnn(CCO)c3)c2n1)c1cc(F)ccc1OCCF (stereo not drawn) [Compound a15-22, 2-(4-(5-((1-(5-fluoro-2-(2-fluoroethoxy)phenyl)ethyl)amino)pyrazolo [1,5-a]pyrimidin-3-yl)-1H-pyrazol-1-yl) ethanol]  7.9 nM
8. CC(Nc1ccn2ncc(-c3cnn(C)c3)c2n1)c1cc(F)ccc1O (stereo not drawn) [Compound a1-2, 4-fluoro-2-(1-((3-(1-methyl-1H-pyrazol-4-yl)pyrazolo [1,5-a]pyrimidin-5-yl)amino)ethyl) phenol]  9 nM
9. CC(Nc1ccn2ncc(-c3cnn(CC(F)F)c3)c2n1)c1cc(F)ccc1OCCF (stereo not drawn) [Compound a16-23, 3-(1-(2,2-difluoroethyl)-1H-pyrazol-4-yl)-N-(1-(5-fluoro-2-(2-fluoroethoxy)phenyl)ethyl) pyrazolo [1,5-a] pyrimidin-5-amine]  9 nM
10. CC(Nc1ccn2ncc(-c3cnn(C4CCCCC4O)c3)c2n1)c1cc(F)ccc1OCCF (stereo not drawn) [Compound a18-25, 2-(4-(5-((1-(5-fluoro-2-(2-fluoroethoxy)phenyl)ethyl)amino)pyrazolo [1,5-a]pyrimidin-3-yl)-1H-pyrazol-1-yl) cyclohexan-1-ol]  9 nM
11. CC(Nc1ccn2ncc(-c3cn[nH]c3)c2n1)c1cc(F)ccc1O (stereo not drawn) [Compound b1-1, 2-(1-((3-(1H-pyrazol-4-yl)pyrazolo [1,5-a]pyrimidin-5-yl)amino)ethyl)-4-fluorophenol]  9.5 nM
12. CC(Nc1ccn2ncc(-c3cnn(S(C)(=O)=O)c3)c2n1)c1cc(F)ccc1OCC(F)F (stereo not drawn) [Compound 13, N-(1-(2-(2,2-difluoroethoxy)-5-fluorophenyl)ethyl)-3-(1-(methylsulfonyl)-1H-pyrazol-4-yl) pyrazolo [1,5-a] pyrimidin-5-amine]  10.4 nM
13. CC(Nc1ccn2ncc(-c3cnn(C4CCCCC4O)c3)c2n1)c1cc(F)ccc1OCC(F)F (stereo not drawn) [Compound 9, 2-(4-(5-((1-(2-(2,2-difluoroethoxy)-5-fluorophenyl)ethyl)amino)pyrazolo [1,5-a]pyrimidin-3-yl)-1H-pyrazol-1-yl) cyclohexan-1-ol]  11.4 nM
14. CC(Nc1ccn2ncc(-c3cnn(C)c3)c2n1)c1cc(F)cc(F)c1OCC(F)F (stereo not drawn) [Compound 15, N-(1-(2-(2,2-difluoroethoxy)-3,5-difluorophenyl)ethyl)-3-(1-methyl-1H-pyrazol-4-yl) pyrazolo [1,5-a] pyrimidin-5-amine]  11.7 nM
15. CC(Nc1ccn2ncc(-c3cnn(C4CCOCC4)c3)c2n1)c1cc(F)ccc1OCC(F)F (stereo not drawn) [Compound 11, N-(1-(2-(2,2-difluoroethoxy)-5-fluorophenyl)ethyl)-3-(1-(tetrahydro-2H-pyran-4-yl)-1H-pyrazol-4-yl) pyrazolo [1,5-a] pyrimidin-5-amine]  11.8 nM
16. CC(Nc1ccn2ncc(-c3cnn(C4CC4)c3)c2n1)c1cc(F)ccc1OCCF (stereo not drawn) [Compound a14-21, 3-(1-cyclopropyl-1H-pyrazol-4-yl)-N-(1-(5-fluoro-2-(2-fluoroethoxy)phenyl)ethyl) pyrazolo [1,5-a] pyrimidin-5-amine]  12 nM
17. CC(Nc1ccn2ncc(-c3cnn(CC(F)F)c3)c2n1)c1cc(F)ccc1OCC(F)F (stereo not drawn) [Compound 6, N-(1-(2-(2,2-difluoroethoxy)-5-fluorophenyl)ethyl)-3-(1-(2,2-difluoroethyl)-1H-pyrazol-4-yl) pyrazolo [1,5-a] pyrimidin-5-amine]  12.4 nM
18. CC(Nc1ccn2ncc(-c3cnn(S(C)(=O)=O)c3)c2n1)c1cc(F)ccc1OCCF (stereo not drawn) [Compound a22-29, N-(1-(5-fluoro-2-(2-fluoroethoxy)phenyl)ethyl)-3-(1-(methylsulfonyl)-1H-pyrazol-4-yl) pyrazolo [1,5-a] pyrimidin-5-amine]  14.6 nM
19. COc1ccc(F)cc1C(C)Nc1ccn2ncc(-c3cn[nH]c3)c2n1 (stereo not drawn) [Compound b2-5, N-(1-(5-fluoro-2-methoxyphenyl)ethyl)-3-(1H-pyrazol-4-yl) pyrazolo [1,5-a]pyrimidin-5-amine]  15.2 nM
20. CC(Nc1ccn2ncc(-c3cnn(C4CCOCC4)c3)c2n1)c1cc(F)ccc1OCCF (stereo not drawn) [Compound a19-26, N-(1-(5-fluoro-2-(2-fluoroethoxy)phenyl)ethyl)-3-(1-(tetrahydro-2H-pyran-4-yl)-1H-pyrazol-4-yl) pyrazolo [1,5-a] pyrimidin-5-amine]  15.8 nM
21. CC(Nc1ccn2ncc(-c3cnn(C)c3)c2n1)c1ccccc1OCC(F)F (stereo not drawn) [Compound 17, N-(1-(2-(2,2-difluoroethoxy)phenyl)ethyl)-3-(1-methyl-1H-pyrazol-4-yl) pyrazolo [1,5-a] pyrimidin-5-amine]  18.3 nM
22. CC(Nc1ccn2ncc(-c3cnn(C(C)C)c3)c2n1)c1cc(F)ccc1OCCF (stereo not drawn) [Compound a13-20, N-(1-(5-fluoro-2-(2-fluoroethoxy)phenyl)ethyl)-3-(1-isopropyl-1H-pyrazol-4-yl) pyrazolo [1,5-a] pyrimidin-5-amine]  20.2 nM
23. CCOc1ccc(F)cc1C(C)Nc1ccn2ncc(-c3cnn(C4CCOCC4)c3)c2n1 (stereo not drawn) [Compound a7-12, N-(1-(2-ethoxy-5-fluorophenyl)ethyl)-3-(1-(tetrahydro-2H-pyran-4-yl)-1H-pyrazol-4-yl) pyrazolo [1,5-a] pyrimidin-5-amine]  23 nM
24. COCCOc1ccc(F)cc1C(C)Nc1ccn2ncc(-c3cn[nH]c3)c2n1 (stereo not drawn) [Compound b6-15, N-(1-(5-fluoro-2-(2-methoxyethoxy)phenyl)ethyl)-3-(1H-pyrazol-4-yl) pyrazolo [1,5-a] pyrimidin-5-amine]  24 nM
25. CC(Nc1ccn2ncc(-c3cnn(C4CCCCC4O)c3)c2n1)c1cc(F)ccc1O (stereo not drawn) [Compound a3-4, 4-fluoro-2-(1-((3-(1-(2-hydroxycyclohexyl)-1H-pyrazol-4-yl)pyrazolo [1,5-a]pyrimidin-5-yl)amino)ethyl) phenol]  24.2 nM
26. CC(Nc1ccn2ncc(-c3cnn(C4CCOCC4)c3)c2n1)c1cc(F)ccc1OCCCF (stereo not drawn) [Compound a25-35, N-(1-(5-fluoro-2-(3-fluoropropoxy)phenyl)ethyl)-3-(1-(tetrahydro-2H-pyran-4-yl)-1H-pyrazol-4-yl) pyrazolo [1,5-a] pyrimidin-5-amine]  24.8 nM
27. CC(Nc1ccn2ncc(-c3cnn(C4CCOCC4)c3)c2n1)c1cc(F)ccc1OC(F)F (stereo not drawn) [Compound a6-10, N-(1-(2-(difluoromethoxy)-5-fluorophenyl)ethyl)-3-(1-(tetrahydro-2H-pyran-4-yl)-1H-pyrazol-4-yl) pyrazolo [1,5-a] pyrimidin-5-amine]  26.5 nM
28. CC(Nc1ccn2ncc(-c3cnn(C(F)F)c3)c2n1)c1cc(F)ccc1OCCO (stereo not drawn) [Compound a8-13, 2-(2-(1-((3-(1-(difluoromethyl)-1H-pyrazol-4-yl)pyrazolo [1,5-a]pyrimidin-5-yl)amino)ethyl)-4-fluorophenoxy) ethanol]  40.9 nM
29. CC(Nc1ccn2ncc(-c3cn[nH]c3)c2n1)c1cc(F)ccc1OCC1CCOCC1 (stereo not drawn) [Compound b15-42, N-(1-(5-fluoro-2-((tetrahydro-2H-pyran-4-yl)methoxy)phenyl)ethyl)-3-(1H-pyrazol-4-yl) pyrazolo [1,5-a] pyrimidin-5-amine]  55 nM
30. COCCOc1ccc(F)cc1C(C)Nc1ccn2ncc(-c3cnn(C4CCOCC4)c3)c2n1 (stereo not drawn) [Compound a9-14, N-(1-(5-fluoro-2-(2-methoxyethoxy)phenyl)ethyl)-3-(1-(tetrahydro-2H-pyran-4-yl)-1H-pyrazol-4-yl) pyrazolo [1,5-a] pyrimidin-5-amine]  67.8 nM
31. CC(Nc1ccn2ncc(-c3cnn(C)c3)c2n1)c1cc(F)ccc1OCC1CCOCC1 (stereo not drawn) [Compound a28-43, N-(1-(5-fluoro-2-((tetrahydro-2H-pyran-4-yl)methoxy)phenyl)ethyl)-3-(1-methyl-1H-pyrazol-4-yl) pyrazolo [1,5-a] pyrimidin-5-amine]  110 nM
32. CC(Nc1ccn2ncc(-c3cn[nH]c3)c2n1)c1cc(F)ccc1OCCN1CCOCC1 (stereo not drawn) [Compound b16-44, N-(1-(5-fluoro-2-(2-morpholinoethoxy)phenyl)ethyl)-3-(1H-pyrazol-4-yl) pyrazolo [1,5-a] pyrimidin-5-amine]  364 nM
